From patent publication US10167299B2, “1-(3-aminopropyl) substituted cyclic amine compounds, preparation method therefor, and pharmaceutical compositions and uses thereof” (SHANGHAI INSTITUTE OF MATERIA MEDICA, CHINESE ACADEMY OF …, priority 2013, dated 2019)
Values after ≈ are worked out from the molar mass of the structure shown.

What was measured:
[1] = Toxicity test of compounds on PBMC cells (MTT); format: cell-based; settings: human; PBMC cells (Table 4)
Method: (§1) The compound to be tested was subject to 5-fold dilution in a 96-well microtiter plate with RPMI-1640 or DMEM complete medium (containing 10% FBS) (Six dilution) triplicate for each dilution and 100 μl for each well. While wells not containing drugs were set as control. Into each well was added 100 μl of 4×10^5/ml PM1, HOS-CD4-CCR5 cells or 100 μl of 5×10^6/ml PHA stimulated PBMC. The cells were cultured at 37° C. with 5% CO2 for three days (PBMC cells were cultured for seven days and 100 μl of fresh RPMI-1640 complete medium was supplemented on the third day). Cytotoxicity was tested with MTT assay. OD values were measured by ELx800 microplate reader. The detection wavelength was 570 nm, and the reference wavelength was 630 nm.

[2] = Cytotoxicity (CC50) in TZM-bl cells; format: cell-based; settings: human; TZM-bl cells (Table 3); read-out: CC50
in vivo = settings: male, rat
Method: The administration volume was 10 mL/kg and drug was formulated with DMSO/Tween 80/physiological saline (5:5:90, v/v/v). […] 2 h after dosing, the rats ate together.
At above time points, 0.3 ml of venous blood was taken from retrobulbar venous plexus of the rat and loaded into EDTA-2K anticoagulative tube. After centrifuged at 11000 rpm for 5 mm, the plasma was separated and frozen at −20° C. in a refrigerator.
The concentration of each compound in rat plasma was determined by LC/MS/MS.
The pharmacokinetic parameters after administration were calculated by using non-compartment model of WinNonlin 5.3 software (Pharsight Corporation, USA).

HIV-1Ba-L virus strain [3] = test: Inhibition of viral replication in PBMC infected with HIV-1Ba-L; format: cell-based; settings: for EC50: Human immunodeficiency virus 1, PBMC
Method: (§2) The virus was titrated according to the modified method of Johnson & Byington. Briefly, the HIV-1 stock solution was subject to four-fold dilution in a 96-well plate (ten gradients) sextuplicate for each gradient, while setting six control-wells. Into each well was added 100 μl (5×10^6/ml) PHA-stimulated PBMC cells and final volume per well was 200 μl. The cells were cultured at 37° C. with 5% CO2. On the third day, 100 μl of fresh RPMI-1640 complete medium was supplemented. On the seventh day, the infected supernatant was collected and lysed with 0.5% Triton X100. The p24 antigen was detected by ELISA and TCID50 of virus was calculated according to Reed & Muench method (50% Tissue culture infection dose).
(§3) The compound to be tested was subject to 5-fold dilution in 48-well plate with RPMI-1640 complete medium (containing 10% FBS). The starting concentration was 1 μM, six dilutions were obtained, and each well contained 200 μl mixture. While wells not containing drugs were set as control. Virus (MOI=0.01) was added to 5×10^6/ml of PBMC cells which have been stimulated by PHA for 72 h. After homogeneously mixed, the mixture was immediately added to 48-well plate containing diluted drug and each well was added with 200 μl of mixture. MVC was used as positive control. The cells were cultured at 37° C. with 5% CO2 for seven days (drug with the same concentration was added on the third day). The supernatant was collected, lysed and inactivated with 0.5% Triton X-100. The inhibition effect of drug on HIV-1 replication was detected using p24 antigen capture ELISA method.

HIV-1SF162 virus strain [4] = test: Inhibition of viral replication in HOS-CD4-CCR5 cells infected with HIV-1SF162; format: cell-based; settings: Human immunodeficiency virus 1, HOS-CD4-CCR5
Method: (§4) On the day before the test, 1×10^5/ml of HOS-CD4-CCR5 cells were inoculated in 96-well plates with 100 μl for each well. The compound to be tested was subject to 5-fold dilution in 96-well microtiter plate with DMEM complete medium (containing 10% FBS). The starting concentration was 1 μM and six dilutions were obtained. Triplicate wells were set for each dilution and each well contained 100 μl mixture. While wells not containing drugs were set as control. The supernatant was removed and 100 μl of drug was added and incubated for 2 h. Then 100 μl of HIV-1SF162 and HIV-1Ba-L were added to dilute supernatant. The cells were infected for 1 h, free virus was washed out and drug with the same final concentration was added. MVC was used as positive control. The cells were cultured at 37° C. with 5% CO2 for three days. The supernatant was collected, lysed and inactivated with 0.5% Triton X-100. The inhibition effect of drug on HIV-1 replication was detected using p24 antigen capture ELISA method.

HIV-1SF162 virus strain [5] = test: Inhibition activity on TZM-bl cells infected with HIV-1SF162; settings: for EC50: Human immunodeficiency virus 1, TZM-bl; for therapeutic index (TI): TZM-bl cells infected with HIV-1SF162; for cytotoxicity in vitro and therapeutic index in words, versus positive control compound: TZM-bl cells infected with HIV-1SF162, conclusion from Table 3
HIV-1SF162 virus strain [6] = test: Inhibition of viral replication in PBMC infected with HIV-1SF162; format: cell-based; settings: for EC50: Human immunodeficiency virus 1, PBMC
Method: as §2, with “On the third day, 100 μl of fresh RPMI-1640 complete medium was supplemented.” left out
as §3, with “The” for “The compound to be tested was subject to 5-fold dilution in 48-well plate with RPMI-1640 complete medium (containing 10% FBS). The”, “Virus (MOI=0.01) was added to 5×10^6/ml of PBMC cells which have been stimulated by PHA for 72 h.” left out

HIV-1KM018 virus strain = test: Inhibition of viral replication in PBMC infected with HIV-1KM018; format: cell-based; settings: for EC50: Human immunodeficiency virus 1, PBMC
Method: as §2, with “On the third day, 100 μl of fresh RPMI-1640 complete medium was supplemented.” left out
as §3, with “The” for “The compound to be tested was subject to 5-fold dilution in 48-well plate with RPMI-1640 complete medium (containing 10% FBS). The”, “Virus (MOI=0.01) was added to 5×10^6/ml of PBMC cells which have been stimulated by PHA for 72 h.” left out

CYP2C9 = CYP2C9 (Homo sapiens (Human), UniProt P11712); test: CYP450 inhibition activity assay (Vivid kit) CYP2C9; format: in vitro ADME; settings: CYP450 subtype (μM) 2C9 (IC50)
Sequence of CYP2C9 (P11712 whole entry): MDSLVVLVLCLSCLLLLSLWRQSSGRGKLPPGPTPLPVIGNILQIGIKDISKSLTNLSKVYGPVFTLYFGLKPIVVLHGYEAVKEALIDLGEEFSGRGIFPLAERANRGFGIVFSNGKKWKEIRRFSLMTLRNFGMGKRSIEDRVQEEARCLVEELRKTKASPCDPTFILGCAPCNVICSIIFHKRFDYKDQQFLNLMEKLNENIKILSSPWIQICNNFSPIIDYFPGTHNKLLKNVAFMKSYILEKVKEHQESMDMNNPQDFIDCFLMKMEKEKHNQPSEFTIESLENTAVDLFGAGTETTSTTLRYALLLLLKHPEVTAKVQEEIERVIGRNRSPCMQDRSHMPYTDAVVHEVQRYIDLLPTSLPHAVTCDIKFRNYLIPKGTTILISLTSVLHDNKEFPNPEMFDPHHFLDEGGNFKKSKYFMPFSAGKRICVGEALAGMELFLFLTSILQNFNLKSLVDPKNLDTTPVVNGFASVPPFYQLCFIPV
Method: VividR CYP450 Screening Kits can be used to evaluate the effects on CYP450 subtypes (CYP1A2, CYP2D6, CYP2C9, CYP2C19, CYP3A4-T and CYP3A4-M) and the substrate VividR in the kit can be metabolizd to a product which can emit strong fluorescence in an aqueous solution by specific CYP450 enzymes.
The compounds to be tested and positive compound were added to corresponding wells and DMSO was added to control wells.
CYP450 enzyme was added to the compounds to be tested, positive compound and DMSO control wells. The enzyme dilution was used to replace enzyme and added to DMSO wells as test background. The mixture was vibrated and mixed for 1 minute, and then incubated at room temperature for 20 minutes.
NADP^+ regeneration system and the substrate were added to initiate the reaction and incubated at room temperature for 60 minutes.

HIV-1Ba-L virus strain [7] = test: Inhibition of viral replication in HOS-CD4-CCR5 cells infected with HIV-1Ba-L; format: cell-based; settings: Human immunodeficiency virus 1, HOS-CD4-CCR5
Method: as §4

[8] = Toxicity test of compounds on HOS-CD4-CCR5 cells (MTT); format: cell-based; settings: human; HOS-CD4+-CCR5 cells (Table 7)
Method: as §1

Molecule `Cc1nnc(C(C)C)n1C1CC2CCC(C1)N2CC[C@H](NC(=O)C1CCC(F)(F)CC1)c1ccsc1` (stereo partly drawn) [Compound 22, 4,4-difluoro-N-[(1S)-3-[exo-3-(3-isopropyl-5-methyl-4H-1,2,4-triazol-4-yl)-8-azabicyclo[3.2.1]octane-8-yl]-1-(thiophen-3-yl)propyl]cyclohexane-1-carboxamide] has a CC50 at 7 days [1] of 635 µg/mL (≈ 1220 µM), a CC50 [2] greater than 200 µg/mL and a bioavailability (in vivo) of 14.5%. For the same molecule, the AUC(0-t) (in vivo; 10 mg/kg) was 4150 ng·h/mL, the AUC(0-inf) (in vivo; iv, 10 mg/kg) was 4160 ng·h/mL and the AUC(0-t) (in vivo; iv, 10 mg/kg) was 4150 ng·h/mL. It also gave a Cmax (in vivo; iv, 10 mg/kg) of 3780 ng/mL, an MRT (in vivo; iv, 10 mg/kg) of 0.84 h and a Tmax (in vivo; iv, 10 mg/kg) of 0.25 h. The half-life (in vivo; iv, 10 mg/kg) was 1 h, the AUC(0-inf) (in vivo; po, 20 mg/kg) was 1260 ng·h/mL and the AUC(0-t) (in vivo; po, 20 mg/kg) was 1210 ng·h/mL. For the same molecule, the Cmax (in vivo; po, 20 mg/kg) was 306 ng/mL, the MRT (in vivo; po, 20 mg/kg) was 2.55 h and the Tmax (in vivo; po, 20 mg/kg) was 2 h. It also gave a bioavailability (in vivo; po, 20 mg/kg) of 14.5%, a half-life (in vivo; po, 20 mg/kg) of 1.55 h and an EC50 (HIV-1Ba-L virus strain [3]) of 0.00513 µg/mL (≈ 0.00987 µM). For the same molecule, the EC50 (HIV-1SF162 virus strain [4]) was 0.00915 µg/mL (≈ 0.0176 µM), the EC50 (HIV-1SF162 virus strain [5]) was 0.00153 µg/mL (≈ 0.00294 µM) and the “therapeutic index (TI)” value (HIV-1SF162 virus strain [5]) was greater than 130718.95. The “cytotoxicity in vitro and therapeutic index in words, versus positive control compound” value (HIV-1SF162 virus strain [5]) was “better than positive control compound”, the EC50 (HIV-1SF162 virus strain [6]) was 0.00265 µg/mL (≈ 0.0051 µM) and the EC50 (HIV-1KM018 virus strain) was 0.00533 µg/mL (≈ 0.0103 µM). The IC50 (CYP2C9) was greater than 25 µM, the EC50 (HIV-1Ba-L virus strain [7]) was 0.00483 µg/mL (≈ 0.00929 µM) and the CC50 at 3 days [8] was greater than 800 µg/mL.
`Cc1nnc(C(C)C)n1C1CC2CCC(C1)N2CC[C@H](NC(=O)C1CCCC1)c1cccs1` (stereo partly drawn) [Compound 18, N-[(1S)-3-[exo-3-(3-isopropyl-5-methyl-4H-1,2,4-triazol-4-yl)-8-azabicyclo[3.2.1]octane-8-yl]-1-(thiophen-2-yl)propyl]cyclopentane-1-carboxamide] gave a CC50 at 7 days [1] of 345 µg/mL (≈ 735 µM), a CC50 [2] greater than 200 µg/mL and a bioavailability (in vivo) of 90.5%. For the same molecule, the AUC(0-t) (in vivo; 10 mg/kg) was 1550 ng·h/mL, the AUC(0-inf) (in vivo; iv, 10 mg/kg) was 1600 ng·h/mL and the AUC(0-t) (in vivo; iv, 10 mg/kg) was 1550 ng·h/mL. The Cmax (in vivo; iv, 10 mg/kg) was 771 ng/mL, the MRT (in vivo; iv, 10 mg/kg) was 1.98 h and the Tmax (in vivo; iv, 10 mg/kg) was 0.25 h. The half-life (in vivo; iv, 10 mg/kg) was 1.81 h, the AUC(0-inf) (in vivo; po, 20 mg/kg) was 3070 ng·h/mL and the AUC(0-t) (in vivo; po, 20 mg/kg) was 2800 ng·h/mL. The Cmax (in vivo; po, 20 mg/kg) was 690 ng/mL, the MRT (in vivo; po, 20 mg/kg) was 2.94 h and the Tmax (in vivo; po, 20 mg/kg) was 2 h. It also gave a bioavailability (in vivo; po, 20 mg/kg) of 90.5%, a half-life (in vivo; po, 20 mg/kg) of 2.05 h and an EC50 (HIV-1Ba-L virus strain [3]) of 0.289 µg/mL (≈ 0.616 µM). The “therapeutic index (TI)” value (HIV-1Ba-L virus strain [3]; PBMC cells infected with HIV-1Ba-L) was 2266.5, the EC50 (HIV-1SF162 virus strain [4]) was 0.0203 µg/mL (≈ 0.0432 µM) and the EC50 (HIV-1SF162 virus strain [5]) was 0.00123 µg/mL (≈ 0.00262 µM). The “therapeutic index (TI)” value (HIV-1SF162 virus strain [5]) was greater than 162601.63, the “cytotoxicity in vitro and therapeutic index in words, versus positive control compound” value (HIV-1SF162 virus strain [5]) was “better than positive control compound” and the EC50 (HIV-1SF162 virus strain [6]) was 0.0927 µg/mL (≈ 0.197 µM). The “therapeutic index (TI)” value (HIV-1SF162 virus strain [6]; PBMC cells infected with HIV-1SF162) was 3721, the EC50 (HIV-1KM018 virus strain) was 0.0699 µg/mL (≈ 0.149 µM) and the “therapeutic index (TI)” value (HIV-1KM018 virus strain; PBMC cells infected with HIV-1KM018) was 4935.2. For the same molecule, the IC50 (CYP2C9) was greater than 25 µM, the EC50 (HIV-1Ba-L virus strain [7]) was 0.0034 µg/mL (≈ 0.00724 µM) and the CC50 at 3 days [8] was 507 µg/mL (≈ 1080 µM).
